{"source": "patent US6576771B1", "about": "“Oxymethoxy-3-aryl-pyrone derivatives” (Bayer Aktiengesellschaft, priority 1995, dated 2003)", "key": {"[1]": {"tested_on": "larvae of the green rice leafhopper (Nephotettix cincticeps)", "assay": "Nephotettix test", "type": "in vivo", "details": "after 6 days; active compound concentration 0.1%; rice seedlings dipped", "description": "Nephotettix Test Solvent: 7 parts by weight of dimethylformamide Emulsifier: 1 part by weight of alkylaryl polyglycol ether […] Rice seedlings (Oryzae sativa) are treated by being dipped into the preparation of the active compound of the desired concentration and are infested with larvae of the green rice leafhopper (Nephotettix cincticeps), while the seedlings are still moist."}, "[2]": {"tested_on": "black bean aphids (Aphis fabae)", "assay": "Limit concentration test / root-systemic action", "type": "in vivo", "details": "active compound concentration 20 ppm in soil; beans (Vicia faba); leaves infested after 7 days, evaluated after a further 2 days", "text": "Limit Concentration Test/Root-systemic Action Test insect: Aphis fabae Solvent: 4 parts by weight of acetone Emulsifier: 1 part by weight of alkylaryl polyglycol ether […] The preparation of active compound is intimately mixed with soil. The concentration of the active compound in the preparation is of no importance in practise, only the amount by weight of active compound per unit volume of soil, which is given in ppm (=mg/l), being decisive. The treated soil is transferred into pots and these are planted with beans (Vicia faba). The active compound can in this way be taken up from the soil by the roots of the plants and be transported into the leaves. […] After a further 2 days, the evaluation is made by counting or estimating the dead animals. The root-systemic action of the active compound is deduced from the destruction figures."}, "[3]": {"tested_on": "All larval stages of Lucilia cuprina (OP resistant)", "assay": "Test with fly larvae / development-inhibiting activity", "type": "in vivo", "details": "active compound concentration 1000 ppm", "description": "Test with Fly Larvae/Development-inhibiting Activity\nTest animals: All larval stages of Lucilia cuprina (OP resistant) [Pupae and adults (without contact with the active compound)]\nSolvent: 35 parts by weight of ethylene glycol monomethyl ether 35 parts by weight of nonylphenol polyglycol ether\nFor each concentration, 30 to 50 larvae are introduced into test tubes containing horse meat (1 cm^3), onto which […] of the dilution under test are pipetted. The glass test tubes are placed in plastic beakers which have bottoms covered with sea sand and are kept in an air-conditioned room (26° C.±1.5° C., 70% relative humidity ±10%). The action is inspected after 24 hours and 48 hours (larvicidal action). After emigration of the larvae (approximately 72 h), the test tubes are removed and perforated plastic lids are placed on the beakers. After 1½ times the development period (emergence of the control flies), the emerged flies and the pupae/pupal cases are counted.\nThe criterion of activity used is the occurrence of death of the treated larvae after 48 h (larvicidal effect), or the inhibition of adult emergence from the pupae, or inhibition of pupal formation. The criterion used for the in-vitro activity of a substance is inhibition of fly development, or cessation of development prior to the adult stage. 100% larvicidal activity means that all larvae have died after 48 hours. 100% development inhibition activity means that no adult flies emerged."}, "Sphaerotheca fuliginea": {"tested_on": "Sphaerotheca fuliginea", "assay": "Sphaerotheca test (cucumber) / protective", "details": "active compound concentration 100 ppm, evaluation 10 days after inoculation", "experimental": "Solvent: 4.7 parts by weight of acetone\nEmulsifier: 0.3 parts by weight of alkylaryl polyglycol ether\nAfter the spray coating has dried on, the plants are dusted with conidia of the fungus Sphaerotheca fuliginea.\nThe plants are then placed in a greenhouse at 23 to 24° C. and at a relative atmospheric humidity of about 75%.\nEvaluation is carried out 10 days after the inoculation."}, "[4]": {"tested_on": "mustard beetle larvae (Phaedon cochleariae)", "assay": "Phaedon larvae test", "type": "in vivo", "details": "after 7 days; active compound concentration 0.01%; cabbage leaves dipped", "description": "(§1) Phaedon Larvae Test Solvent: 7 parts by weight of dimethylformamide Emulsifier: 1 part by weight of alkylaryl polyglycol ether […] Cabbage leaves (Brassica oleracea) are treated by being dipped into the preparation of the active compound of the desired concentration and are infested with mustard beetle larvae (Phaedon cochleariae), while the leaves are still moist."}, "[5]": {"tested_on": "caterpillars of the diamond-back moth (Plutella maculipennis)", "assay": "Plutella test", "type": "in vivo", "details": "after 7 days; active compound concentration 0.1%; cabbage leaves dipped", "description": "as §1, with “Plutella” for “Phaedon Larvae”, “caterpillars of the diamond-back moth (Plutella maculipennis),” for “mustard beetle larvae (Phaedon cochleariae),”"}, "[6]": {"tested_on": "caterpillars of the owlet moth (Spodoptera frugiperda)", "assay": "Spodoptera test", "type": "in vivo", "details": "after 7 days; active compound concentration 0.1%; cabbage leaves dipped", "description": "Solvent: 7 parts by weight of dimethylformamide\n(§2) Emulsifier: 1 part by weight of alkylaryl polyglycol ether\nCabbage leaves (Brassica oleracea) are treated by being dipped into the preparation of the active compound of the desired concentration and are infested with caterpillars of the owlet moth (Spodoptera frugiperda), while the leaves are still moist.\nAfter the specified period of time, the destruction in % is determined. 100% means that all the caterpillars have been killed; 0% means that none of the caterpillars have been killed."}, "[7]": {"tested_on": "common spider mite (Tetranychus urticae)", "assay": "Tetranychus test (resistance)", "type": "in vivo", "details": "after 13 days; active compound concentration 0.01%; bean plants dipped", "description": "Tetranychus Test (Resistance)\nSolvent: 3 parts by weight of dimethylformamide\nas §2\nAfter the specified period of time, the destruction in % is determined. 100% means that all the spider mites have been killed 0% means that none of the spider mites have been killed."}}, "data": [{"smiles": "C#CCOCOc1c(C)c(-c2ccccn2)oc(=O)c1-c1c(C)cc(C)cc1C", "note": "[Example 1, 5-methyl-6-(2-pyridyl)-4-propargyloxymethoxy-3-(2,4,6-trimethylphenyl)-2-pyrone]", "values": [{"measurement": "degree of destruction", "setting": "[1]", "value": 100, "unit": "%"}, {"measurement": "degree of destruction (root-systemic action)", "setting": "[2]", "value": 100, "unit": "%"}, {"measurement": "inhibition at 1000 ppm", "setting": "[3]; Lucilia cuprina, read-out: activity (larvicidal / development inhibition)", "value": 100, "unit": "%"}, {"measurement": "activity in comparison with the untreated control", "setting": "Sphaerotheca fuliginea", "value": 100, "unit": "%"}]}, {"smiles": "Cc1cc(C)c(-c2c(OCOCC(C)C)c(C)c(-c3ccc(Cl)cc3)oc2=O)c(C)c1", "note": "[Example 2, 6-(4-chlorophenyl)-4-[(2-methyl-1-propoxy)-methoxy]-5-methyl-3-(2,4,6-trimethylphenyl)-2-pyrone]", "values": [{"measurement": "activity in comparison with the untreated control", "setting": "Sphaerotheca fuliginea", "value": 100, "unit": "%"}]}, {"smiles": "CCOCOc1c(C)c(-c2ccc(F)cc2)oc(=O)c1-c1c(C)cc(C)cc1C", "note": "[Example 4]", "values": [{"measurement": "degree of destruction", "setting": "[4]", "value": 100, "unit": "%"}, {"measurement": "degree of destruction", "setting": "[5]", "value": 100, "unit": "%"}, {"measurement": "degree of destruction", "setting": "[6]", "value": 100, "unit": "%"}, {"measurement": "degree of destruction", "setting": "[1]", "value": 100, "unit": "%"}, {"measurement": "activity (larvicidal / development inhibition)", "setting": "[3]", "value": 100, "unit": "%"}, {"measurement": "activity in comparison with the untreated control", "setting": "Sphaerotheca fuliginea", "value": 100, "unit": "%"}]}, {"smiles": "CCOCOc1cc(CC(C)C)oc(=O)c1-c1c(C)cc(C)cc1C", "note": "[Example 5]", "values": [{"measurement": "degree of destruction", "setting": "[4]", "value": 100, "unit": "%"}, {"measurement": "degree of destruction", "setting": "[5]", "value": 100, "unit": "%"}, {"measurement": "degree of destruction", "setting": "[6]", "value": 100, "unit": "%"}]}, {"smiles": "C#CCOCOc1c(C)c(-c2ccc(F)cc2)oc(=O)c1-c1c(C)cc(C)cc1C", "note": "[Example 7]", "values": [{"measurement": "degree of destruction", "setting": "[1]", "value": 100, "unit": "%"}, {"measurement": "activity in comparison with the untreated control", "setting": "Sphaerotheca fuliginea", "value": 100, "unit": "%"}]}, {"smiles": "Cc1cc(C)c(-c2c(OCOCC(C)C)c(C)c(-c3ccc(F)cc3)oc2=O)c(C)c1", "note": "[Example 8]", "values": [{"measurement": "activity in comparison with the untreated control", "setting": "Sphaerotheca fuliginea", "value": 100, "unit": "%"}]}, {"smiles": "Cc1cc(C)c(-c2c(OCOC(C)C)c(C)c(-c3ccc(F)cc3)oc2=O)c(C)c1", "note": "[Example 9]", "values": [{"measurement": "degree of destruction", "setting": "[4]", "value": 100, "unit": "%"}, {"measurement": "degree of destruction", "setting": "[5]", "value": 100, "unit": "%"}, {"measurement": "degree of destruction", "setting": "[6]", "value": 100, "unit": "%"}, {"measurement": "degree of destruction", "setting": "[1]", "value": 100, "unit": "%"}, {"measurement": "degree of destruction", "setting": "[7]", "value": 100, "unit": "%"}, {"measurement": "activity (larvicidal / development inhibition)", "setting": "[3]", "value": 100, "unit": "%"}, {"measurement": "activity in comparison with the untreated control", "setting": "Sphaerotheca fuliginea", "value": 100, "unit": "%"}]}, {"smiles": "Cc1cc(C)c(-c2c(OCOCC(C)C)c(C)c(-c3ccccn3)oc2=O)c(C)c1", "note": "[Example 10]", "values": [{"measurement": "degree of destruction", "setting": "[5]", "value": 100, "unit": "%"}, {"measurement": "degree of destruction (root-systemic action)", "setting": "[2]", "value": 100, "unit": "%"}, {"measurement": "degree of destruction", "setting": "[7]", "value": 100, "unit": "%"}, {"measurement": "activity (larvicidal / development inhibition)", "setting": "[3]", "value": 100, "unit": "%"}, {"measurement": "activity in comparison with the untreated control", "setting": "Sphaerotheca fuliginea", "value": 100, "unit": "%"}]}, {"smiles": "Cc1cc(C)c(-c2c(OCOC(C)C)c(C)c(-c3ccccn3)oc2=O)c(C)c1", "note": "[Example 11]", "values": [{"measurement": "degree of destruction", "setting": "[1]", "value": 100, "unit": "%"}, {"measurement": "degree of destruction (root-systemic action)", "setting": "[2]", "value": 100, "unit": "%"}, {"measurement": "degree of destruction", "setting": "[7]", "value": 100, "unit": "%"}, {"measurement": "activity (larvicidal / development inhibition)", "setting": "[3]", "value": 100, "unit": "%"}, {"measurement": "activity in comparison with the untreated control", "setting": "Sphaerotheca fuliginea", "value": 100, "unit": "%"}]}, {"smiles": "Cc1cc(C)c(-c2c(OCOC(C)C)cc(C3(Cl)CC3)oc2=O)c(C)c1", "note": "[Example 21]", "values": [{"measurement": "degree of destruction", "setting": "[1]", "value": 100, "unit": "%"}, {"measurement": "degree of destruction", "setting": "[7]", "value": 100, "unit": "%"}, {"measurement": "activity in comparison with the untreated control", "setting": "Sphaerotheca fuliginea", "value": 100, "unit": "%"}]}, {"smiles": "CCOCOc1c(C)c(-c2ccccn2)oc(=O)c1-c1c(C)cc(C)cc1C", "note": "[Example 26]", "values": [{"measurement": "degree of destruction", "setting": "[4]", "value": 100, "unit": "%"}, {"measurement": "degree of destruction", "setting": "[1]", "value": 100, "unit": "%"}]}, {"smiles": "Cc1cc(C)c(-c2c(OCOCC(C)C)c(C)c(-c3cccc(C)n3)oc2=O)c(C)c1", "note": "[Example 27]", "values": [{"measurement": "degree of destruction", "setting": "[4]", "value": 100, "unit": "%"}, {"measurement": "degree of destruction", "setting": "[5]", "value": 100, "unit": "%"}, {"measurement": "degree of destruction", "setting": "[1]", "value": 100, "unit": "%"}]}, {"smiles": "Cc1cc(C)c(-c2c(OCOC(C)C)c(C)c(-c3cccc(C)n3)oc2=O)c(C)c1", "note": "[Example 28]", "values": [{"measurement": "degree of destruction", "setting": "[4]", "value": 100, "unit": "%"}, {"measurement": "degree of destruction", "setting": "[5]", "value": 100, "unit": "%"}, {"measurement": "degree of destruction", "setting": "[1]", "value": 100, "unit": "%"}]}, {"smiles": "CCOCOc1c(C)c(C2CCCC2)oc(=O)c1-c1c(C)cc(C)cc1C", "note": "[Example 32]", "values": [{"measurement": "degree of destruction", "setting": "[5]", "value": 100, "unit": "%"}, {"measurement": "degree of destruction", "setting": "[6]", "value": 100, "unit": "%"}, {"measurement": "degree of destruction", "setting": "[1]", "value": 100, "unit": "%"}]}, {"smiles": "C#CCOCOc1c(C)c(C2CCCC2)oc(=O)c1-c1c(C)cc(C)cc1C", "note": "[Example 33]", "values": [{"measurement": "degree of destruction", "setting": "[1]", "value": 100, "unit": "%"}]}, {"smiles": "Cc1cc(C)c(-c2c(OCOC(C)C)c(C)c(C3CCCC3)oc2=O)c(C)c1", "note": "[Example 34]", "values": [{"measurement": "degree of destruction", "setting": "[5]", "value": 100, "unit": "%"}, {"measurement": "degree of destruction", "setting": "[6]", "value": 100, "unit": "%"}]}, {"smiles": "Cc1cc(C)c(-c2c(OCOCC(C)C)oc(-c3ccsc3)c(C)c2=O)c(C)c1", "note": "[Example 36, 2-[(2-Methyl-1-propoxy)-methoxy]-5-methyl-6-(3-thienyl)-3-(2,4,6-trimethyl-phenyl)-4-pyrone]", "values": [{"measurement": "melting point", "value": "102 to 104", "unit": "°C"}]}]}
